“Also recorded” adds a separate entry of the source.
Key:
pituitary tumors = details: cited from earlier work
glucocorticoid receptor = glucocorticoid receptor (Homo sapiens, UniProt P04150); details: HepG2 cells; cited from earlier work
pituitary macroadenoma = assay: MRI measurement of pituitary tumor size in Cushing's Disease patients given relacorilant; assay type: in vivo, human
Excerpt: The relacorilant administration disclosed herein can reduce tumor size and confer beneficial clinical outcomes to patients having a pituitary tumor. Methods for measuring the size of a pituitary tumor are well-known to skilled artisans in the field. For example, magnetic resonance imaging (MRI) and other imaging methods may be used to detect tumor shrinkage. Other methods for determining the effect of cancer therapy on tumor size are also known in the art, e.g., as described in the Response Evaluation Criteria in Solid Tumors (“RECIST”) guidelines, discussed, for example, in Chalian et al., Radiographics 31(7):2093-2105 (2011), and available at “protocolDevelopment/docs/recist_guideline.pdf” of the website “ctep.cancer.gov”.
Measuring tumor size is typically achieved by imaging-based techniques, including magnetic resonance imaging (MRI), computed tomography (CT), positron-emission tomography (PET) and other techniques. For example, MRI, CT, and PET scans can provide accurate and reliable anatomic information not only about tumor shrinkage or growth but also progression of disease by identifying either growth in existing lesions or the development of new lesions or tumor metastasis. Tumor size, including a reduction in tumor size, may be determined by measuring a linear dimension of a tumor (measuring may be accomplished, for example, by counting pixels on a digital image, by measuring a distance on a printed image or from an image projected onto a screen); by measuring two different linear dimensions of a tumor; by measuring three, or more, different linear dimensions of a tumor; by calculating (or estimating, based on measurements) a cross-sectional area of a tumor; by calculating (or estimating, based on measurements) a volume of a tumor; or by other means known in the art. […]

[1] = Clinical studies of relacorilant in patients with endogenous hypercortisolism; assay type: in vivo, human
Excerpt: The following examples show the results of relacorilant administration to patients suffering from pituitary tumors.

progesterone receptor = progesterone receptor (Homo sapiens, UniProt P06401); details: cited from earlier work
Chain of progesterone receptor (P06401 whole entry, species assumed): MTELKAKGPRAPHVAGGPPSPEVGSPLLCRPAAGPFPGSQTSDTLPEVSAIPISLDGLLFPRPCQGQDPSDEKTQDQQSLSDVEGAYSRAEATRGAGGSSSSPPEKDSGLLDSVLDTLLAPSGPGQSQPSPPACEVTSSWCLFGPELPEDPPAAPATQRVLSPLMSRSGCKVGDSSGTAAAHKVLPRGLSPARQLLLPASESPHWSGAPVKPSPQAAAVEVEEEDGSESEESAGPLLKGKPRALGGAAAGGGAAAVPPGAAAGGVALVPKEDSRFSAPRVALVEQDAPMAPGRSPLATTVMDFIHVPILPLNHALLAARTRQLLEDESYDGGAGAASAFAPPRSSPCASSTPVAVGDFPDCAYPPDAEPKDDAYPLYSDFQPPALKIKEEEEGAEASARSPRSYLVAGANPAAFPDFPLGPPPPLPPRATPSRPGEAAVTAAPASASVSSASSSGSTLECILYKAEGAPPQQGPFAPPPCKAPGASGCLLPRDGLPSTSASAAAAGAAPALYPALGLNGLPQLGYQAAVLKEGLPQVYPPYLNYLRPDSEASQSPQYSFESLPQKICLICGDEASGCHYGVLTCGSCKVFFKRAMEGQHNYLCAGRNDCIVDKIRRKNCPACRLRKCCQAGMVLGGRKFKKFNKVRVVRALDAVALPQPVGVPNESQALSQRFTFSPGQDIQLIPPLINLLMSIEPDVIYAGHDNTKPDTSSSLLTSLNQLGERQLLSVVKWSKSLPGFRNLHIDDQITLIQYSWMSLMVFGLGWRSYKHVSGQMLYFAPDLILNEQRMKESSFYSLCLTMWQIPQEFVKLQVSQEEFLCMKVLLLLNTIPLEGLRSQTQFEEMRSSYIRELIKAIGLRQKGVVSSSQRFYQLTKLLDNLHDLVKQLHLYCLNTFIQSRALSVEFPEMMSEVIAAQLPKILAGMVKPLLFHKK

[2] = biological target: T1, mineralocorticoid receptor (Homo sapiens, UniProt P08235); details: cited from earlier work
T1 sequence (P08235 1-984): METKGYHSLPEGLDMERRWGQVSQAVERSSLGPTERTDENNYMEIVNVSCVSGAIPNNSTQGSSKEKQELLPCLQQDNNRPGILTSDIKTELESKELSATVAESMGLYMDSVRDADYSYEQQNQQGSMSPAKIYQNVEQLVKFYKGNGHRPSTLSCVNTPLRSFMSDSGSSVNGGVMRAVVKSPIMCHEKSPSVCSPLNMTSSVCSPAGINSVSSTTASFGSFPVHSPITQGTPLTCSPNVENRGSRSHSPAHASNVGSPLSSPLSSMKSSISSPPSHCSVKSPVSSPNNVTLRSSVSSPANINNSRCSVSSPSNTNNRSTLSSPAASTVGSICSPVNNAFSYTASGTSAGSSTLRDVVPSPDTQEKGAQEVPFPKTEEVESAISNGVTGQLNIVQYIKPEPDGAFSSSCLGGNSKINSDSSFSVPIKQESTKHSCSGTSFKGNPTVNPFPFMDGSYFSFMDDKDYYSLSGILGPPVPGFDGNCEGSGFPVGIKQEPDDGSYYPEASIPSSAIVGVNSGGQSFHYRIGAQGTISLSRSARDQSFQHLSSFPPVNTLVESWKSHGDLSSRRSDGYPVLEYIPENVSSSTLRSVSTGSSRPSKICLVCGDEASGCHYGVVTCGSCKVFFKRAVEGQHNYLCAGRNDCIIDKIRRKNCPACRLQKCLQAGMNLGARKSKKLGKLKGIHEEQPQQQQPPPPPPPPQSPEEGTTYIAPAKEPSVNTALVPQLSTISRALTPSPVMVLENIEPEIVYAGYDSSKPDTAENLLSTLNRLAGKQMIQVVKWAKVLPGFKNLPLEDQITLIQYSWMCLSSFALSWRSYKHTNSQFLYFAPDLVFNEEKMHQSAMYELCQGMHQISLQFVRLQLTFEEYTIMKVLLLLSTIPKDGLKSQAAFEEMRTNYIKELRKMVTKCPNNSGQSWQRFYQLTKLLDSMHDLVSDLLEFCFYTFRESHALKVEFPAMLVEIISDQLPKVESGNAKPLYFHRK

androgen receptor = androgen receptor (Homo sapiens, UniProt P10275); details: cited from earlier work
Chain of androgen receptor (P10275 whole entry, species assumed): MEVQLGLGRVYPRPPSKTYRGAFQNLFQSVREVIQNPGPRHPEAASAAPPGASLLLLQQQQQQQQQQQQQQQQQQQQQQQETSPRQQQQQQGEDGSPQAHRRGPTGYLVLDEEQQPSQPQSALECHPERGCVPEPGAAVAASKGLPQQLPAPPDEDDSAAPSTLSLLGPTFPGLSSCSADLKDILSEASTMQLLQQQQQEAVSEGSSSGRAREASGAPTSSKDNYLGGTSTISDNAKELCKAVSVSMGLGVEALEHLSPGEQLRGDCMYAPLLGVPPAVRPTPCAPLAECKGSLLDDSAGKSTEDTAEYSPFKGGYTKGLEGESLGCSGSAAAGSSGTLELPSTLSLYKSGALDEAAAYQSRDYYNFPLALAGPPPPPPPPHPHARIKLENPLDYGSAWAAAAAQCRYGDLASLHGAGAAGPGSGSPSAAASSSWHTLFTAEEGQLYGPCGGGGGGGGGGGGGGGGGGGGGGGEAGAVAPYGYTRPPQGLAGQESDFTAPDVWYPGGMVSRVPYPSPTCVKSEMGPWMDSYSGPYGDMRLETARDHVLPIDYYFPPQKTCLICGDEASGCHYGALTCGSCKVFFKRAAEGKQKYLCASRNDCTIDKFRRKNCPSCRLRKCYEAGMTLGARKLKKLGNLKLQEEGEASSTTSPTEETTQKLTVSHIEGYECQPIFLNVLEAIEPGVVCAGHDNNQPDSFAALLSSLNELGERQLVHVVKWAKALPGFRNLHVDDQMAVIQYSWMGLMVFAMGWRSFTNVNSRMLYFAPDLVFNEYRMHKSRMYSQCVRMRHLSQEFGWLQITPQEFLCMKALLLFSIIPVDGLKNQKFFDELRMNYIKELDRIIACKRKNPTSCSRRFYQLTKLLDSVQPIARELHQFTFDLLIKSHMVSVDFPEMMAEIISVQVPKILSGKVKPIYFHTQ

estrogen receptor = details: cited from earlier work

Chain of glucocorticoid receptor (P04150 whole entry): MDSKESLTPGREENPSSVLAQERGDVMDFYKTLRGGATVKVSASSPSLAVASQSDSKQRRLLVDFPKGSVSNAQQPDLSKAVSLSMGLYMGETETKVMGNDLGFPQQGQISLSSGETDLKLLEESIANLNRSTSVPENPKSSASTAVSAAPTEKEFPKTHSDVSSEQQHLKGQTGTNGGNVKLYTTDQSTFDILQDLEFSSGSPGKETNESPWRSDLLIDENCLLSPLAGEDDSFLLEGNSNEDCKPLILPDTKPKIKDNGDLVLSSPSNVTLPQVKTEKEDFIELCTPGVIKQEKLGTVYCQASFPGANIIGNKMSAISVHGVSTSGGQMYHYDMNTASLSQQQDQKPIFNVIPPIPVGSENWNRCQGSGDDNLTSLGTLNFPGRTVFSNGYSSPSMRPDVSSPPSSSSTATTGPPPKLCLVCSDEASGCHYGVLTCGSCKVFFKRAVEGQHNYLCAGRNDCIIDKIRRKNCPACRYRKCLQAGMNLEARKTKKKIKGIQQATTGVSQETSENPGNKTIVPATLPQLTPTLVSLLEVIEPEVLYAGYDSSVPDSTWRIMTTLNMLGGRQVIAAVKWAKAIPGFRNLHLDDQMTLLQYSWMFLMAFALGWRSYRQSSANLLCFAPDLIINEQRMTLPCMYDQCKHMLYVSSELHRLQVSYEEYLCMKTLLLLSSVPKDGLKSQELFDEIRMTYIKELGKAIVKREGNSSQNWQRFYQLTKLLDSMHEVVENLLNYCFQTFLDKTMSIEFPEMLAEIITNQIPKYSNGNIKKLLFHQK

SMILES	tumor regression (MRI) (pituitary tumors; 17 Cushing's Disease patients with visible tumors (10 macroadenomas), mifepristone for 24 weeks)	MRI images of tumor over treatment (pituitary tumors; 17 patients, in one patient the tumor increased in size with 10 weeks of mifepristone)	effect on tyrosine aminotransferase (TAT) activity (glucocorticoid receptor)	tumor volume shrinkage (pituitary macroadenoma; Example 2 patient, following three months of relacorilant administration) [%]	multiplication of the three post-treatment measurements (indication of tumor volume) (pituitary macroadenoma; Example 2 patient, pre-treatment measure 14,300 mm^3)	effect on pituitary tumor size (pituitary macroadenoma; two Cushing's Disease patients (both macroadenomas), three months of daily relacorilant)	tolerability ([1]; clinical studies)	glycemic and hypertension control and other manifestations of cortisol excess ([1]; patients with endogenous hypercortisolism)	effect on progesterone receptor (progesterone receptor)	effect on mineralocorticoid receptor [2]	effect on androgen receptor (androgen receptor)	effect on estrogen receptor (estrogen receptor)
CC#C[C@]1(O)CC[C@H]2[C@@H]3CCC4=CC(=O)CCC4=C3[C@@H](c3ccc(N(C)C)cc3)C[C@@]21C [mifepristone]	no regression	stable in all but one patient	decreases									
Cn1cc(S(=O)(=O)N2CCC3=Cc4c(cnn4-c4ccc(F)cc4)C[C@]3(C(=O)c3cc(C(F)(F)F)ccn3)C2)cn1 [relacorilant, (R)-(1-(4-fluorophenyl)-6-((1-methyl-1H-pyrazol-4-yl)sulfonyl)-4,4a,5,6,7,8-hexahydro-1H-pyrazolo[3,4-g]isoquinolin-4a-yl)(4-(trifluoromethyl)pyridin-2-yl)methanone]				~40	8,778 mm^3	significant pituitary tumor shrinkage; also recorded: shrunk; also recorded: effective to reduce the size of pituitary tumors	well tolerated	significantly improved	does not significantly affect	does not significantly affect	does not significantly affect	does not significantly affect

— patent US12005055B2, “Methods for shrinking pituitary tumors” (Corcept Therapeutics Incorporated, priority 2018, dated 2024)
